The source of these data is ChEMBL document CHEMBL4261503, “Scaffold hopping via ANCHOR.QUERY: β-lactams as potent p53-MDM2 antagonists†” (Medchemcomm, 2017).

In one experiment the target is T1, Protein Mdm4 (Homo sapiens, UniProt O15151).
T1 sequence (O15151 whole entry): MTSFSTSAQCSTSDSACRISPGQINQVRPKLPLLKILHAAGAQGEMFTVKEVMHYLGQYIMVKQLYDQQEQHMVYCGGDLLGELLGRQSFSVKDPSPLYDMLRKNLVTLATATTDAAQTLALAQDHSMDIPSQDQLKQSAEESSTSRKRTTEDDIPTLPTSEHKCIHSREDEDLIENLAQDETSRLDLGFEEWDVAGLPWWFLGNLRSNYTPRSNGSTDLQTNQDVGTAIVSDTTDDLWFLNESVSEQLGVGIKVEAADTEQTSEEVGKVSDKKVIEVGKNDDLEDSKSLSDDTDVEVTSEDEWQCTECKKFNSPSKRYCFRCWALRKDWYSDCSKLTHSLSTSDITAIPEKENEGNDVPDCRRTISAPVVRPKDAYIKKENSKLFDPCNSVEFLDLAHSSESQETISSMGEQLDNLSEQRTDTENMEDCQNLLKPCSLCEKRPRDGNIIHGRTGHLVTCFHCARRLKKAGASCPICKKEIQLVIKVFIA

In experiment [1] the target is E3 ubiquitin-protein ligase Mdm2 (Homo sapiens, UniProt Q00987).
E3 ubiquitin-protein ligase Mdm2, sequence (Q00987 whole entry): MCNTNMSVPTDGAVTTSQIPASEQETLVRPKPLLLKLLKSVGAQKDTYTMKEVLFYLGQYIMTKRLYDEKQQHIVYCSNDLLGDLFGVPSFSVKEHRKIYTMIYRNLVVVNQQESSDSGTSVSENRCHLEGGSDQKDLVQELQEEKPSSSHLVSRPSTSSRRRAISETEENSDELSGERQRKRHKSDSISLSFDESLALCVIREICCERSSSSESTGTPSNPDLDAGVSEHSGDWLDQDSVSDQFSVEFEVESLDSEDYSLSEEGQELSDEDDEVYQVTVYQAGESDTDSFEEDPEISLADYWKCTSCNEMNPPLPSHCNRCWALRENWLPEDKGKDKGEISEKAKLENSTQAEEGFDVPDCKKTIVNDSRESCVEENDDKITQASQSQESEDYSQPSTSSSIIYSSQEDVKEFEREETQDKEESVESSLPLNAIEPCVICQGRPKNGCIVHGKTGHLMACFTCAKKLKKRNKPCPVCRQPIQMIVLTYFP

In the case of `CC(C)(C)NC(=O)C(c1ccc(Cl)cc1)N1C(=O)CC1c1ccc(OCc2ccccc2)cc1` (mixture of isomers), the Ki entry (at Protein Mdm4; in experiment [1]) was “Not Active” in each case.

With `O=C(NC12CC3CC(CC(C3)C1)C2)C(c1ccc(Cl)cc1)N1C(=O)CC1c1ccc(OCc2ccccc2)cc1` (single isomer, unassigned; diastereomer A), the Ki entry (at Protein Mdm4; in experiment [1]) was “Not Active” throughout.
